The target of data set [1] is Poly [ADP-ribose] polymerase 1 (Homo sapiens, UniProt P09874).
Description: Inhibition of PARP1 in human HeLa cells by fluid scintillation counting using [adenylated-32P]NAD as substrate
The test system of data set [2] is HCT-116. Kind of data set: Cytotoxicity against human HCT116 cells. It counts as cell-based.
The test system of data set [3] is PARP1. Kind of data set: Therapeutic index, ratio of LD40 for human HCT116 cells to drug concentration that reduced half the amount of streptozotocin required to inhibit PARP1-mediated 90% human HCT116 cell growth. Format: cell-based, HCT-116. The conditions noted are these: read-out: TI.

Molecules are shown by their SMILES.

Chain of Poly [ADP-ribose] polymerase 1 (P09874 whole entry): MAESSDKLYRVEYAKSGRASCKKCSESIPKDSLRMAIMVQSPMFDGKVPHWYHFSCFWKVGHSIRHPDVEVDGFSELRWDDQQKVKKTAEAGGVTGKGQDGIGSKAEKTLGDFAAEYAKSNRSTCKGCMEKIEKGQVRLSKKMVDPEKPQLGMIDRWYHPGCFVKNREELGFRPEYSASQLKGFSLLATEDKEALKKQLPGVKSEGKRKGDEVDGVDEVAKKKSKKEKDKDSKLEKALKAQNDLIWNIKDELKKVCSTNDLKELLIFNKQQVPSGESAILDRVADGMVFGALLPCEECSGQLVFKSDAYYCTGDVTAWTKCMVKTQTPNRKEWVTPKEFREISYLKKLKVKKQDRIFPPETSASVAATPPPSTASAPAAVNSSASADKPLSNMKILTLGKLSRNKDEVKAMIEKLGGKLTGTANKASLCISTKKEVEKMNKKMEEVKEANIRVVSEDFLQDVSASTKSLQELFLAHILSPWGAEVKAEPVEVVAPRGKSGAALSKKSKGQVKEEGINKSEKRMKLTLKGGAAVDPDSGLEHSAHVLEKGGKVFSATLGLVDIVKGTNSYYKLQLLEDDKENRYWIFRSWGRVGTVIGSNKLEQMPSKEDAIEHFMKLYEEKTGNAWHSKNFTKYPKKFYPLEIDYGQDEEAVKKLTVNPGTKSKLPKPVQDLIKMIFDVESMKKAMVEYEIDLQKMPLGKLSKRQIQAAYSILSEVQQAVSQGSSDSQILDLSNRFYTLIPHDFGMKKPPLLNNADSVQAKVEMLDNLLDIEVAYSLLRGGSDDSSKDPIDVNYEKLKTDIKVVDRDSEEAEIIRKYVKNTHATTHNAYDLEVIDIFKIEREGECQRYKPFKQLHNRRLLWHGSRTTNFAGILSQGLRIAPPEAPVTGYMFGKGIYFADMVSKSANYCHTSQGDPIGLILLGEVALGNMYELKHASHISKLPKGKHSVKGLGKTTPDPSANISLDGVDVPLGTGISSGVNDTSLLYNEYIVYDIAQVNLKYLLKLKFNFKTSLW

On to `Cn1nc(-c2cccs2)c2c3c(c(=O)[nH]c21)CSC3`, for which the IC50 in data set [1] was 0.428 µM. This lies in the sub-micromolar range.

On to `Cn1nc(-c2ccccc2)c2c1NC(=O)C1CCCCC21` (configuration not stated), for which the LD40 in data set [2] worked out at 7.5 µM. In data set [3], the selectivity ratio was determined as 19.7. The IC50 in data set [1] amounted to 0.0073 µM.

In data set [2], `Cn1nc(-c2cccs2)c2c3c(c(=O)[nH]c21)CCC3` gave an LD40 of 11.2 µM. Also, the selectivity ratio in data set [3] is 3.6. In addition, in data set [1], half-maximal inhibition (IC50) required 0.149 µM.

Turning to `Cc1nn(C)c2[nH]c(=O)c3c(c12)CCCC3`, the LD40 in data set [2] was above 12.5 µM. Besides, in data set [3], the selectivity ratio was above 6.6. For the same molecule, half-maximal inhibition in data set [1] (IC50) required 0.0022 µM.

Take `Cn1nc(-c2ccccc2)c2c3c(c(=O)[nH]c21)CCC3`: in data set [2], the LD40 worked out at 42.5 µM. For the same molecule, the selectivity ratio in data set [3] was determined as 1.6. The IC50 in data set [1] worked out at 0.106 µM.

As to `Cc1cccc2c1CCNC2=O`, half-maximal inhibition in data set [1] (IC50) required 0.16 µM.

In turn, `Cc1nn(C(C)(C)C)c2[nH]c(=O)c3c(c12)CCC3` showed a 50% inhibitory concentration (IC50) in data set [1] of 0.519 µM.

In data set [2], `Cc1nn(C)c2[nH]c(=O)c3c(c12)CCC3` gave an LD40 of 27.2 µM. For the same molecule, the selectivity ratio in data set [3] came to 1.4. Besides, the IC50 in data set [1] worked out at 0.0298 µM.

The molecule `Cc1nn(C)c2[nH]c(=O)c3c(c12)CSC3` returned an LD40 in data set [2] above 50 µM. Also, the selectivity ratio in data set [3] was above 1.8. In data set [1], this molecule had an IC50 of 0.0927 µM.

In the case of `COc1ccc(-c2nc3c(C(N)=O)cccc3[nH]2)cc1`, 0.06 µM corresponded to half-maximal inhibition in data set [1] (IC50).

`Cc1nn(C)c2[nH]c3c(c(=O)c12)CCCC3` came in with an IC50 in data set [1] above 10 µM.

In data set [2], `Cn1nc(-c2ccccc2)c2c3c(c(=O)[nH]c21)CSC3` displayed an LD40 of 21.2 µM. The selectivity ratio in data set [3] was 1.4. Also, in data set [1], the concentration for half-maximal inhibition (IC50) was found to be 0.11 µM.

In data set [2], `Cn1nc(-c2cccs2)c2c3c(c(=O)[nH]c21)CCCC3` gave an LD40 above 12.5 µM. The selectivity ratio in data set [3] is above 32.9. In data set [1], inhibition was half-maximal at 0.0069 µM (IC50).

In turn, `Cc1nn(C)c2nc3c(c(O)c12)CSC3` returned an IC50 in data set [1] above 10 µM.

On to `O=c1[nH]c2c(c(-c3ccccc3)nn2-c2ccccc2)c2c1CCC2`, for which, in data set [1], the IC50 is above 10 µM.

In data set [1], `Cc1nn(-c2ccccc2)c2[nH]c(=O)c3c(c12)CCC3` returned an IC50 above 10 µM.

Regarding `Cc1nn(-c2ccccc2)c2[nH]c(=O)c3c(c12)CSC3`, the IC50 in data set [1] was above 10 µM.

In data set [1], `Cc1nn(C(C)(C)C)c2[nH]c(=O)c3c(c12)CSC3` had an IC50 of 1.84 µM. This counts as single-digit micromolar.

`Cc1nn(-c2ccccc2)c2[nH]c(=O)c3c(c12)CCCC3` gave an IC50 in data set [1] of 9.72 µM.

In data set [1], `Cc1nn(C)c2[nH]c3c(c(=O)c12)CCC3` gave an IC50 of 7 µM.

In data set [1], `O=c1[nH]c2c(c(-c3ccccc3)nn2-c2ccccc2)c2c1CCCC2` gave an IC50 above 10 µM.

Usually IC50 stands for the midpoint of a concentration-inhibition curve. Higher therefore signals weaker potency.
